≈ marks a conversion by molar mass, not a printed value.
What was measured:
[1] = test system: KB; experiment: Cytotoxicity against human KB cells; type: functional, cell-based
[2] = test system: Plasmodium falciparum; experiment: Antiplasmodial activity against chloroquine-sensitive Plasmodium falciparum D6 as [3H]hypoxanthine uptake; type: functional, organism-based
[3] = test system: Plasmodium falciparum; experiment: Antiplasmodial activity against chloroquine-resistant Plasmodium falciparum W2 as [3H]hypoxanthine uptake; type: functional, organism-based

Compound | IC50 [1] [µg/mL] | IC50 [2] [µg/mL] | IC50 [3] [µg/mL]
COc1cc2c3c4c1Oc1cc5c(cc1O4)[C@H](Cc1ccc(cc1)Oc1cc(ccc1O)C[C@@H]3N(C)CC2)N(C)CC5 | 12 (≈ 21.3 µM) | 0.306 (≈ 0.544 µM) | 0.265 (≈ 0.471 µM)
COc1ccc2cc1Oc1ccc(cc1)C[C@H]1c3c(cc(O)c4c3Oc3cc5c(cc3O4)CCN(C)[C@H]5C2)CCN1C | 3.4 (≈ 6.04 µM) | 0.0171 (≈ 0.0304 µM) | 0.063 (≈ 0.112 µM)
COc1ccc2cc1Oc1ccc(cc1)C[C@H]1c3cc4c(cc3CCN1C)Oc1c(OC)cc3c(c1O4)[C@H](C2)N(C)CC3 | 5.9 (≈ 10.2 µM) | 0.326 (≈ 0.565 µM) | 0.204 (≈ 0.354 µM)

— ChEMBL document CHEMBL1145702, “(+)-Angchibangkine, a new type of bisbenzylisoquinoline alkaloid, and other dimers from Pachygone dasycarpa” (J Nat Prod, 1997)
